Literature values as cited in US8585707B2, “Continuous low irradiance photodynamic therapy method” (priority 2006, dated 2013).

Details: after intravenous administration, attributed to extended half-life

time the level of drug in the tissue remains stable: over 36 hours
Substance: Photofrin
